Test system: patients with refractory metastatic colorectal cancer (mCRC)
Test: PFS, OS and disease control in the testing (validation) cohort of refractory mCRC patients receiving TAS-102 (n=129, Italy), by baseline characteristics, SNP genotype and toxicity
Assay type: in vivo, human
Conditions: for HR OS (95% CI) / HR PFS (95% CI): ATM rs609429 Any G vs C/C (Ref.)
Procedure: All patients underwent the treatment in salvage-line setting. […]
Genomic DNA was extracted from peripheral whole blood in patients of all cohorts using the QIAmp Kit (Qiagen, Valencia, Calif., USA) according to the manufacturer's protocol (www.qiagen.com). The candidate SNPs were genotyped using PCR-based direct DNA sequence analysis by ABI 3100A Capillary Genetic Analyzer and Sequencing Scanner v1.0 (Applied Biosystems). Amplification of extracted DNA was carried out using both forward and reverse primers for each gene polymorphism as shown in Table 1. […] The investigators analyzing SNPs were blinded to the clinical data of the study patients.
The primary endpoint in this study was progression-free survival (PFS), and the secondary endpoints were overall survival (OS) and disease control rate (DCR). PFS was calculated from the date of starting treatment to the first observation of disease progression or death from any cause. If a patient had no disease progression or death, PFS was censored at the date of last follow up. OS was calculated from the date of starting treatment until the date of death from any cause or the date of the last follow-up, at which point OS was censored. The disease control rate (DCR) was defined as the proportion of patients who achieved a stable disease (SD) or […] according to RECISTv1.1. Chi-square test was used to examine the difference in baseline patient characteristics among the three cohorts. Allelic distribution of all SNPs by ethnicity for deviation from Hardy-Weinberg equilibrium and the allelic frequencies of SNPs were tested using the Chi-square tests with one degree of freedom. The associations between candidate SNPs and disease control, and toxicities were examined using contingency tables and Fisher's exact test. The associations of SNPs with PFS and OS were analysed using Kaplan-Meier curves and the log-rank test. Because the true mode of inheritance of candidate SNPs was not established yet, a codominant or dominant genetic model if appropriate was considered.
All patients underwent the treatment in salvage-line setting. […] In all patients, adverse events were graded according to the Common Terminology Criteria for Adverse Events, version 4.0. […]
Genomic DNA was extracted from peripheral whole blood in patients of all cohorts using the QIAmp Kit (Qiagen, Valencia, Calif., USA) according to the manufacturer's protocol (www.qiagen.com). The candidate SNPs were tested using PCR-based direct DNA sequence analysis by ABI 3100A Capillary Genetic Analyzer and Sequencing Scanner v1.0 (Applied Biosystems). […] The investigators analyzing SNPs were blinded to the clinical data.
The primary endpoint in this study was progression-free survival (PFS), and the secondary endpoints were overall survival (OS) and disease control rate (DCR).

[1] = testing cohort, hENT1 rs750370 A/A
[2] = testing cohort, hENT1 rs750370 A/G
[3] = testing cohort, hENT1 rs750370 A/G vs A/A
[4] = testing cohort, hENT1 rs750370 Any G
[5] = testing cohort, hENT1 rs750370 Any G vs A/A
[6] = testing cohort, hENT1 rs750370 G/G
[7] = testing cohort, hENT1 rs750370 G/G vs A/A
[8] = testing cohort, hENT1 rs760370, multivariable adjusted for age group, liver metastasis, ECOG, previous anti-EGFR
[9] = testing cohort, hENT1 rs760370 A/A
[10] = testing cohort, hENT1 rs760370 any G allele
[11] = testing cohort, hENT1 rs760370 any G vs A/A, univariate
[12] = testing cohort, hENT1 rs9394992 Any T
[13] = testing cohort, hENT1 rs9394992 Any T vs C/C
[14] = testing cohort, hENT1 rs9394992 C/C
[15] = testing cohort, hENT1 rs9394992 C/T
[16] = testing cohort, hENT1 rs9394992 C/T vs C/C
[17] = testing cohort, hENT1 rs9394992 T/T
[18] = testing cohort, hENT1 rs9394992 T/T vs C/C
[19] = testing cohort, hENT1370_OCT019 Excellent
[20] = testing cohort, hENT1370_OCT019 Fair
[21] = testing cohort, hENT1370_OCT019 Fair vs Poor
[22] = testing cohort, hENT1370_OCT019 Good
[23] = testing cohort, hENT1370_OCT019 Good and Excellent combined
[24] = testing cohort, hENT1370_OCT019 Good and Excellent combined vs Poor
[25] = testing cohort, hENT1370_OCT019 Poor
[26] = testing/validation cohort, grade 3≤ neutropenia
[27] = testing/validation cohort, grade 3≤ neutropenia vs less than grade 3
[28] = testing/validation cohort, neutropenia less than grade 3
[29] = validation cohort, ATM rs609429 Any G
[30] = validation cohort, multivariable
[31] = validation cohort, ATM rs609429 C/C

Trifluridine/tipiracil [TAS-102]
Disease Control Rate SD [1]: 9 (20%) | Overall Survival Median, months (95% CI) [1]: 3.9 (3.3, 5.5) months | Progression-free Survival Median, months (95% CI) [1]: 1.9 (1.7, 2.0) months | Disease Control Rate PD [2]: 42 (66%) | Disease Control Rate SD [2]: 22 (34%) | Progression-free Survival Median, months (95% CI) [2]: 2.1 (1.9, 2.5) months | Overall Survival HR (95% CI) multivariate [3]: 0.50 (0.28, 0.89) | Overall Survival HR (95% CI) univariate [3]: 0.48 (0.27, 0.85) | Progression-free Survival HR (95% CI) multivariate [3]: 0.58 (0.37, 0.89) | Progression-free Survival HR (95% CI) univariate [3]: 0.59 (0.38, 0.90) | Disease Control Rate PD [4]: 55 (66%) | Disease Control Rate SD [4]: 28 (34%) | Overall Survival Median, months (95% CI) [4]: 9.0 (5.1, 9.0+) months | Progression-free Survival Median, months (95% CI) [4]: 2.1 (1.9, 2.4) months | Overall Survival HR (95% CI) multivariate [5]: 0.54 (0.31, 0.93) | Overall Survival HR (95% CI) univariate [5]: 0.50 (0.29, 0.86) | Progression-free Survival HR (95% CI) multivariate [5]: 0.65 (0.43, 0.98) | Progression-free Survival HR (95% CI) univariate [5]: 0.64 (0.43, 0.95) | Disease Control Rate PD [6]: 13 (68%) | Disease Control Rate SD [6]: 6 (32%) | Overall Survival Median, months (95% CI) [6]: 9.0 (2.9, 9.0+) months | Progression-free Survival Median, months (95% CI) [6]: 2.0 (1.6, 2.5) months | Overall Survival HR (95% CI) multivariate [7]: 0.78 (0.31, 1.99) | Overall Survival HR (95% CI) univariate [7]: 0.58 (0.24, 1.41) | Progression-free Survival HR (95% CI) multivariate [7]: 1.00 (0.55, 1.80) | Progression-free Survival HR (95% CI) univariate [7]: 0.86 (0.48, 1.55) | HR for OS [8]: 0.54 | HR for PFS [8]: 0.65 | OS [9]: 3.9 months | PFS [9]: 1.9 months | OS [10]: 9.0 months | PFS [10]: 2.1 months | HR for OS [11]: 0.50 | HR for PFS [11]: 0.64 | Disease Control Rate PD [12]: 50 (71%) | Disease Control Rate SD [12]: 20 (29%) | Overall Survival Median, months (95% CI) [12]: 5.2 (3.7, 9.0+) months | Progression-free Survival Median, months (95% CI) [12]: 2.0 (1.9, 2.4) months | Overall Survival HR (95% CI) multivariate [13]: 1.19 (0.69, 2.07) | Overall Survival HR (95% CI) univariate [13]: 1.31 (0.76, 2.27) | Progression-free Survival HR (95% CI) multivariate [13]: 0.81 (0.54, 1.19) | Progression-free Survival HR (95% CI) univariate [13]: 0.92 (0.62, 1.35) | Disease Control Rate PD [14]: 41 (71%) | Disease Control Rate SD [14]: 17 (29%) | Overall Survival Median, months (95% CI) [14]: 5.8 (4.7, 8.8+) months | Progression-free Survival Median, months (95% CI) [14]: 2.0 (1.9, 2.1) months | Disease Control Rate PD [15]: 41 (71%) | Disease Control Rate SD [15]: 17 (29%) | Overall Survival Median, months (95% CI) [15]: 4.4 (3.6, 9.0+) months | Progression-free Survival Median, months (95% CI) [15]: 2.0 (1.8, 2.3) months | Overall Survival HR (95% CI) multivariate [16]: 1.23 (0.69, 2.18) | Overall Survival HR (95% CI) univariate [16]: 1.38 (0.78, 2.43) | Progression-free Survival HR (95% CI) multivariate [16]: 0.81 (0.54, 1.22) | Progression-free Survival HR (95% CI) univariate [16]: 0.92 (0.61, 1.38) | Disease Control Rate PD [17]: 9 (75%) | Disease Control Rate SD [17]: 3 (25%) | Progression-free Survival Median, months (95% CI) [17]: 2.5 (0.4, 3.9) months | Overall Survival HR (95% CI) multivariate [18]: 1.02 (0.38, 2.71) | Overall Survival HR (95% CI) univariate [18]: 1.06 (0.40, 2.79) | Progression-free Survival HR (95% CI) multivariate [18]: 0.79 (0.39, 1.58) | Progression-free Survival HR (95% CI) univariate [18]: 0.90 (0.45, 1.78) | Disease Control Rate PD [19]: 38 (64%) | Disease Control Rate SD [19]: 21 (36%) | Disease Control Rate PD [20]: 25 (81%) | Disease Control Rate SD [20]: 6 (19%) | Overall Survival Median, months (95% CI) [20]: 4.0 (3.1, 8.8) months | Progression-free Survival Median, months (95% CI) [20]: 1.9 (1.6, 2.0) months | Overall Survival HR (95% CI) multivariate [21]: 0.58 (0.25, 1.37) | Overall Survival HR (95% CI) univariate [21]: 0.77 (0.34, 1.75) | Progression-free Survival HR (95% CI) multivariate [21]: 1.13 (0.57, 2.24) | Progression-free Survival HR (95% CI) univariate [21]: 1.24 (0.64, 2.40) | Disease Control Rate PD [22]: 17 (71%) | Disease Control Rate SD [22]: 7 (29%) | Overall Survival Median, months (95% CI) [23]: 9.0 (5.1, 9.0) months | Progression-free Survival Median, months (95% CI) [23]: 2.1 (1.9, 2.4) months | Overall Survival HR (95% CI) multivariate [24]: 0.37 (0.17, 0.80) | Overall Survival HR (95% CI) univariate [24]: 0.42 (0.20, 0.90) | Progression-free Survival HR (95% CI) multivariate [24]: 0.71 (0.38, 1.30) | Progression-free Survival HR (95% CI) univariate [24]: 0.73 (0.40, 1.34) | Disease Control Rate PD [25]: 11 (79%) | Disease Control Rate SD [25]: 3 (21%) | Overall Survival Median, months (95% CI) [25]: 3.6 (2.3, 8.5) months | Progression-free Survival Median, months (95% CI) [25]: 2.0 (1.7, 2.4) months | Progression-free Survival Median, months (95% CI) (testing cohort, per OCT2 rs316000 genotype (row), OCT2 rs316000 A/A genotype): 2.0 (1.9, 2.1) months | Progression-free Survival Median, months (95% CI) (testing cohort, per OCT2 rs316000 genotype (row), OCT2 rs316000 A/G genotype): 1.9 (1.7, 2.4) months | Progression-free Survival Median, months (95% CI) (testing cohort, per OCT2 rs316000 genotype (row), OCT2 rs316000 Any G genotype): 1.9 (1.8, 2.6) months | Progression-free Survival Median, months (95% CI) (testing cohort, per OCT2 rs316000 genotype (row), OCT2 rs316000 G/G genotype): 3.7 (1.7, 6.8+) months | OS [26]: 8.8 months | PFS [26]: 2.3 months | HR for OS [27]: 0.21 | HR for PFS [27]: 0.50 | OS [28]: 3.7 months | PFS [28]: 1.9 months | Disease Control CR/PR/SD, patients n (%) [29]: 26 (33%) | Median PFS (95% CI) [29]: 2.0 (1.9, 2.3) months | PD, patients n (%) [29]: 52 (67%) | HR OS (95% CI) [30]: 0.80 (0.45, 1.41) | HR PFS (95% CI) [30]: 0.85 (0.56, 1.29) | HR OS (95% CI) (validation cohort, univariate): 0.73 (0.43, 1.25) | HR PFS (95% CI) (validation cohort, univariate): 0.78 (0.52, 1.16) | Disease Control CR/PR/SD, patients n (%) [31]: 11 (22%) | Median OS (95% CI) [31]: 4.4 (3.7, 9.0+) months | Median PFS (95% CI) [31]: 1.9 (1.8, 2.3) months | OS [31]: 4.4 months | PD, patients n (%) [31]: 39 (78%) | PFS [31]: 1.9 months

— patent publication US20190233884A1 (University of Southern California, priority 2016, published 2019)
